Experimental data as given in patent US20170319480A1, “PHARMACEUTICAL FORMULATION” (Boehringer Ingelheim International GmbH, priority 2014, published 2017).

Test: Bioavailability of afatinib in fed state
Type: in vivo
Details: adults
From the text: As decreased bioavailability of afatinib has been observed in adults ad fed state, the oral solution is not intended to be administered with food or drinks.

bioavailability in fed state: decreased
Compound: CN(C)C/C=C/C(=O)Nc1cc2c(Nc3ccc(F)c(Cl)c3)ncnc2cc1O[C@H]1CCOC1 [afatinib, 4-[(3-chloro-4-fluorophenyl)amino]-6-{[4-(N,N-dimethylamino)-1-oxo-2-buten-1-yl]amino}-7-((S)-tetrahydrofuran-3-yloxy)-quinazoline]
